From US10301270B2, “Compositions and methods for quadricyclane modification of biomolecules” (The Regents of the University of California, priority 2011, dated 2019)
“Also recorded” adds a separate entry of the source. Read-outs that look alike come from different tables or passages of the source.

Legend:
Assay type in all cases: physicochemical
[1] = Photo-lability of complex 3 in ambient light (NMR, UV/Vis/NIR); conditions: CDCl3 solution in an NMR tube
Procedure: Complex 3 (2.2 mg) was dissolved in CDCl3 (˜0.75 mL) and placed in an NMR tube on the bench continually exposed to ambient light. NMR spectra were periodically obtained. The asterisks indicate the chemical shifts for 7-acetoxy norbornadiene (4). At the 36 h time point, there is a 1:1.1 ratio of 3:4 as judged by integration of the olefin peaks.
Using an NMR assay degradation of 3 over the first few hours is not evident. However, using UV/Vis/NIR spectroscopy, which has greater sensitivity than NMR, the formation of 2 from 3 is evident at early timepoints. A solution of 3 was prepared in CH3CN and left in ambient light. A UV/Vis/NIR spectrum was obtained every 15 min. The NIR absorption band at 855 nm characteristic of 2 is growing in, while the small hump centered at ˜400 nm characteristic of […] is decreasing. The absorption band at 350 nm is also increasing in intensity.

[2] = Stability of 7-acetoxy quadricyclane 1 in PBS (NMR); conditions: room temperature, more than 2 months (NMR taken 2.5 months after preparation, CD3CN/deuterated PBS)
Procedure: 7-acetoxy quadricyclane (1, 2 mg) was dissolved in 0.4 mL of CD3CN. To this solution, 0.4 mL of deuterated PBS was added. The NMR spectrum above was taken 2.5 months after the described solution was prepared.

[3] = Stability of quadricyclane 1 to cysteine and other biological nucleophiles, BSA and cell culture media
Procedure: 7-acetoxy quadricyclane (1, 2 mg) was dissolved in 0.4 mL of CD3CN. To this solution, 0.4 mL of deuterated PBS and 3 mg of cysteine were added. The NMR spectrum above was taken 2.5 months after the described solution was prepared.

[4] = Solubility and reactivity of bis(dithiobenzil)nickel(II) 2
[5] = Prevention of photo-degradation of complex 3 by diethyldithiocarbamate (UV/Vis/NIR); conditions: 200 μM 3, 1.25 mM 5, 3:1 CH3CN/H2O, 20 h ambient light
Procedure: A solution containing 200 μM 3 and 0 (red) or 1.25 (green) mM 5 in 3:1 CH3CN/H2O was prepared and left in ambient light continually. A. UV/Vis/NIR spectra of the described solutions taken before being exposed to light. B. UV/Vis/NIR spectra of the described solutions taken after 20 h of exposure to light. The red line contains little absorbance due to the low solubility of 2 in acetonitrile. If 2 is reduced to the anionic state by cysteine (1.25 mM, blue line) solubility in acetonitrile is improved and evidence of photodegradation can be seen. The diethyldithiocarbamate treated sample remains unaltered after exposure to light indicating no photodegradation occurred.

CC(=O)OC1C2C=CC1C1C2[S]2=[Ni]3(=[S]1C(c1ccccc1)=C(c1ccccc1)[S]3)[S]C(c1ccccc1)=C2c1ccccc1 (stereo not drawn) [Complex 3]
half-life at 2.9 mg/mL ([1]; NMR, read-out: Calculated half-life of photo-degradation based on all integration data (converted)): 34.8 h | half-life at 2.9 mg/mL ([1]; read-out: Half-life of the light-induced reversion (converted)): ~35 h

CC(=O)OC1C2C3C2C2C1C32 (stereo not drawn) [Compound 1, 7-acetoxy Quadricyclane]
Stability in phosphate buffered saline (PBS, pH 7.4) [2]: stable; also recorded: no degradation observed | Stability in the presence of bovine serum albumin (BSA) and cell culture media ([3]; conditions emulating metabolic labeling experiments): stable | Reactivity with sugars, oxidants and free amino acids, most notably cysteine ([3]; cysteine: CD3CN/deuterated PBS, NMR after 2.5 months): stable; also recorded: unreactive

S=C(C(=S)c1ccccc1)c1ccccc1.S=C(C(=S)c1ccccc1)c1ccccc1.[Ni] [Compound 2, Bis(dithiobenzil)nickel(II)]
Solubility in acetonitrile ([4]; acetonitrile): low | Reactivity with a variety of nucleophiles ([4]; in dichloromethane): unreactive | Solubility in polar solvents ([4]; polar solvents): limited

CCN(CC)C(=S)S [Compound 5, diethyldithiocarbamate]
Effect on photo-degradation of complex 3 [5]: prevented
